# Test results published in PMC12203862, “BroadAMP-GPT: AI-Driven generation of broad-spectrum antimicrobial peptides for combating multidrug-resistant ESKAPE pathogens” (Gut Microbes, 2025).
# Residues, ends and D or L forms follow the SMILES beside them.
# Key:
# S. aureus ATCC 29213 = assay: microbe, parasite or virus in culture; assay type: cell-based; settings: ATCC 29213
# A. baumannii 7979 = assay: microbe, parasite or virus in culture; assay type: cell-based; settings: 7979
# Description: (§1) Bacterial strains and growth conditions: All Gram-negative and Gram-positive bacterial strains (Supplementary Table S8) were cultured in Luria-Bertani (LB) or trypticase soy broth (TSB) agar plates, respectively, and incubated overnight at 37 °C unless specifically indicated. A single colony of the tested bacterial strains was inoculated into medium broth with shaking at 220 rpm for further experiments.
# (§2) Minimal inhibitory concentrations: Antimicrobial susceptibility testing was performed by broth microdilution method for AMPs against Gram-positive and Gram-negative pathogens above mentioned, following the methods of document CLSI M100-ED34.[43] The MICs were defined as the lowest concentrations that inhibit visible growth of the tested bacteria. E. coli ATCC 25,922 and S. aureus ATCC 29,213 were served as quality controls.
# A. baumannii AB11 = assay: microbe, parasite or virus in culture; assay type: cell-based; settings: AB11
# Description: as §1, §2
# E. coli ATCC 25922 = assay: microbe, parasite or virus in culture; assay type: cell-based; settings: ATCC 25922
# Description: as §1, §2
# E. faecalis ES01 = assay: microbe, parasite or virus in culture; assay type: cell-based; settings: ES01
# Description: as §1, §2
# E. faecalis J2 = assay: microbe, parasite or virus in culture; assay type: cell-based; settings: J2
# Description: as §1, §2
# E. faecalis JH2-2 = assay: microbe, parasite or virus in culture; assay type: cell-based; settings: JH2-2
# Description: as §1, §2
# E. faecium HFY01 = assay: microbe, parasite or virus in culture; assay type: cell-based; settings: HFY01
# Description: as §1, §2
# E. faecium MC38 = assay: microbe, parasite or virus in culture; assay type: cell-based; settings: MC38
# Description: as §1, §2
# E. faecium QF31 = assay: microbe, parasite or virus in culture; assay type: cell-based; settings: QF31
# Description: as §1, §2
# K. pneumoniae 9-1 = assay: microbe, parasite or virus in culture; assay type: cell-based; settings: 9-1
# Description: as §1, §2
# P. aeruginosa PA14 = assay: microbe, parasite or virus in culture; assay type: cell-based; settings: PA14
# Description: as §1, §2
# S. agalactiae DL03 = assay: microbe, parasite or virus in culture; assay type: cell-based; settings: DL03
# Description: as §1, §2
# S. aureus M147-2 = assay: microbe, parasite or virus in culture; assay type: cell-based; settings: M147-2
# Description: as §1, §2
# S. aureus M92-1 = assay: microbe, parasite or virus in culture; assay type: cell-based; settings: M92-1
# Description: as §1, §2
# S. aureus YZSA-15 = assay: microbe, parasite or virus in culture; assay type: cell-based; settings: YZSA-15
# Description: as §1, §2
# S. aureus YZSA-21 = assay: microbe, parasite or virus in culture; assay type: cell-based; settings: YZSA-21
# Description: as §1, §2
# S. aureus YZSA-24 = assay: microbe, parasite or virus in culture; assay type: cell-based; settings: YZSA-24
# Description: as §1, §2
# S. pyogenes DL02 = assay: microbe, parasite or virus in culture; assay type: cell-based; settings: DL02
# Description: as §1, §2
# S. suis SH0918 = assay: microbe, parasite or virus in culture; assay type: cell-based
# Description: as §1, §2
# S. suis P1/7 = assay: microbe, parasite or virus in culture
# Description: as §1
# as §2, with “bacteria.” for “bacteria. E. coli ATCC 25,922 and S. aureus ATCC 29,213 were served as quality controls.”
# S. enteritis S1 = assay: organism not typed; assay type: cell-based
# Description: as §1, §2
# [1] = tested on: S. aureus clinical isolates (n = 40); assay type: cell-based
# Description: as §1, §2
# [2] = tested on: four Gram-positive and five Gram-negative bacteria, including ESKAPE pathogens; assay type: cell-based
# Description: as §1, §2
# Caco-2 = assay: Cytotoxicity, CCK-8; assay type: cell-based, human
# Description: (§3) The cytotoxicity of selected AMPs to human laryngeal carcinoma epithelial cell (HEp-2) and colorectal adenocarcinoma cell (Caco-2) lines was evaluated using the CCK-8 method as previously described.[55] The cells were cultured in high-glucose dulbecco’s modified eagle medium (DMEM) supplemented with 10% fetal bovine serum (FBS) and 1% penicillin-streptomycin. Cells were inoculated in 96-well sterile microtiter plate at 5000 cells/100 μL. After cultured (37℃, 5%CO2) for 24 h, cells were treated with AMPs at concentrations ranging from 8 to 128 μg/mL for another 48 h. Afterward, the culture medium was replaced by fresh DMEM medium containing 10% CCK-8 and incubated for 1 h. The absorbance of the solution was measured at 450 nm by a microplate reader. Cell viability was calculated as: % cell viability = [(Abssample - Absblank)/(Absnegative - Absblank)]×100%. Each experiment was carried out with three replicates.
# HEp-2 = assay: Cytotoxicity, CCK-8; assay type: cell-based, human
# Description: as §3
# mouse red blood cells = assay: Haemolysis assay; assay type: cell-based; settings: MIC values against S. aureus ATCC 29213
# Description: Red blood cells (RBCs) from Kunming mice were used to evaluate the hemolytic toxicity of the selected AMPs. Fresh red blood cells were collected from mice and washed until the supernatant was completely cleared. Added 19-fold volume of PBS to prepare 2% RBC suspension. […] Afterward, the mixture was centrifuged at 1500 rpm for 10 min. Then transferred 30 µL supernatant to 96-well plate containing 70 µL PBS. The absorbance of the sample was measured at 450 nm by a microplate reader. PBS and 2% Triton X-100 was used as negative and positive control, respectively. The experiment was performed in triplicate and the hemolysis activity was calculated by the formula hemolysis = [(Absorbancesample- AbsorbancePBS)/(AbsorbanceTriton x-100-AbsorbancePBS)]×100%.
structure (smiles),measurement,setting,value
CC(C)C[C@H](NC(=O)[C@H](CCCCN)NC(=O)[C@H](Cc1c[nH]c2ccccc12)NC(=O)[C@H](CC(C)C)NC(=O)[C@H](CC(C)C)NC(=O)[C@H](CCCCN)NC(=O)[C@H](Cc1c[nH]c2ccccc12)NC(=O)[C@H](Cc1c[nH]c2ccccc12)NC(=O)[C@H](CCCCN)NC(=O)[C@H](CCCCN)NC(=O)[C@H](C)N)C(=O)N[C@@H](Cc1c[nH]c2ccccc12)C(=O)N[C@@H](CCCCN)C(=O)N[C@@H](CCCCN)C(=O)N[C@@H](C)C(=O)N[C@@H](CCCCN)C(=O)O [AMP_S4] (H-AKKWWKLLWKLWKKAK-OH),MIC,S. aureus ATCC 29213,4 µg/mL
same,MIC,A. baumannii 7979,4 µg/mL
same,MIC,A. baumannii AB11,2 µg/mL
same,MIC,E. coli ATCC 25922,8 µg/mL
same,MIC,E. faecalis ES01,4 µg/mL
same,MIC,E. faecalis J2,8 µg/mL
same,MIC,E. faecalis JH2-2,8 µg/mL
same,MIC,E. faecium HFY01,4 µg/mL
same,MIC,E. faecium MC38,4 µg/mL
same,MIC,E. faecium QF31,4 µg/mL
same,MIC,K. pneumoniae 9-1,16 µg/mL
same,MIC,P. aeruginosa PA14,8 µg/mL
same,MIC,S. agalactiae DL03,4 µg/mL
same,MIC,S. aureus M147-2,4 µg/mL
same,MIC,S. aureus M92-1,4 µg/mL
same,MIC,S. aureus YZSA-15,4 µg/mL
same,MIC,S. aureus YZSA-21,4 µg/mL
same,MIC,S. aureus YZSA-24,16 µg/mL
same,MIC,S. pyogenes DL02,4 µg/mL
same,MIC,S. suis SH0918,4 µg/mL
same,MIC,S. suis P1/7,4 µg/mL
same,MIC,S. enteritis S1,16 µg/mL
same,"MICs, range over clinical isolates",[1],4 to 32 µg/mL
same,"MIC values, range",[2],2 to 16 µg/mL
same,"MICs, range over panel",[2],2 to 16 µg/mL
same,CC50,Caco-2; 48 h,15.82 µg/mL
same,CC50/MIC,"Caco-2; Caco-2, MIC values against S. aureus ATCC 29213",3.96
same,CC50,HEp-2; 48 h,35.16 µg/mL
same,CC50/MIC,"HEp-2; HEp-2, MIC values against S. aureus ATCC 29213",8.8
same,HC50/MIC,mouse red blood cells,4.56
